From patent US9428487B2, “Heteroaromatic amides and thioamides as pesticides” (Bayer Intellectual Property GmbH, priority 2008, dated 2016)
Where two headings read alike, the source gives them in different places.

Legend:
[1] = Determination of log P values by HPLC on reversed-phase column (formic acid method); format: physicochemical; settings: reversed-phase C 18, acidic range (pH 3.4), formic acid eluents, 55° C., read-out: logP (HCOOH)
Procedure: 1) Description of Method for Determining the Log P Values (Formic Acid Method)
The log P values reported in the table were determined according to EEC-Directive 79/831 Annex V.A8 by HPLC (High Performance Liquid Chromatography) on a reversed-phase column (C 18). […]
Eluent A: acetonitrile+1 ml of formic acid/liter. Eluent B: water+0.9 ml of formic acid/liter.
Gradient: from 10% eluent A/90% eluent B to 95% eluent A/5% eluent B in 4.25 min
The calibration was effected with unbranched alkan-2-ones (with 3 to 16 carbon atoms), whose log P values are known (determination of the log P values on the basis of the retention times by linear interpolation between two successive alkanones). The lambda-max values were determined with reference to the UV spectra from 200 nm to 400 nm in the maxima of the chromatographic signals.

[2] = test system: green peach aphid (Myzus persicae); test: Myzus test; format: in vivo; settings: read-out: efficacy (aphids killed)
Procedure: • Solvent: 78.0 parts by weight of acetone • 1.5 parts by weight of dimethylformamide • Emulsifier: 0.5 part by weight of alkylaryl polyglycol ether
To produce an appropriate active ingredient formulation, 1 part by weight of active ingredient is mixed with the amounts of solvent and emulsifier specified and the concentrate is diluted to the desired concentration with emulsifier-containing water.
Chinese cabbage leaf slices (Brassica pekinensis) infested by all stages of the green peach aphid (Myzus persicae) are sprayed with an active ingredient formulation of the desired concentration.
After the desired time, the efficacy in % is determined 100% means that all aphids have been killed; 0% means that no aphids have been killed.

[3] = reversed-phase HPLC column (C 18), pH 3.4, HPLC
[4] = application rate 500 g/ha, spray on Chinese cabbage leaf slices

chromatographic logP [1, 3] | Compound | pest or weed control at 500 g/ha [2, 4] | chromatographic logP ([1]; HPLC) | pest or weed control at 500 g/ha ([2]; in Brassica rapa)
1.71 | CSC[C@H](C)N(C)C(=O)c1sc(-c2cccnc2)nc1C [Compound 71] | ≥ 70% |  | 
0.94 | Cc1nccc(CNC(=O)c2cnc(-c3cccnc3)s2)n1 [Compound 74] | ≥ 70% |  | 
1.34 | Cc1nc(-c2cccnc2)sc1C(=O)NCC(C)F (stereo not shown) [Compound 75] | ≥ 70% |  | 
1.15 | Cc1cnc(CNC(=O)c2sc(-c3cccnc3)nc2C)cn1 [Compound 77] | ≥ 70% |  | 
1.31 | Cc1nc(-c2ccc[n+]([O-])c2)sc1C(=O)NCC(F)(F)F [Compound 78] | ≥ 70% |  | 
1.5 | Cc1nc(-c2cccnc2)sc1C(=O)N(C)CC(C)F (stereo not shown) [Compound 80] | ≥ 70% |  | 
1.75 | Cc1nc(-c2cccnc2)sc1C(=O)NCC(F)(F)C(F)F [Compound 82] | ≥ 70% |  | 
1.36 | COC(=O)C(C)NC(=O)c1sc(-c2cccnc2)nc1C (stereo not shown) [Compound 84] | ≥ 70% |  | 
1.23 | Cc1nc(-c2cccnc2)sc1C(=O)N(C)CCF [Compound 85] | ≥ 70% |  | 
2.61 | CCC(=O)N(CC(F)(F)F)C(=O)c1sc(-c2cccnc2)nc1C [Compound 89] | ≥ 70% |  | 
1.02 | Cc1nc(-c2cccnc2)sc1C(=O)N(C)Cc1ncccn1 [Compound 91] | ≥ 70% |  | 
1.27 | Cc1nc(-c2cccnc2)sc1C(=O)NCC1OCCCO1 [Compound 92] | ≥ 70% |  | 
1.24 | Cc1cc(C)nc(CNC(=O)c2sc(-c3cccnc3)nc2C)n1 [Compound 95] | ≥ 70% |  | 
1.98 | Cc1nc(-c2cccnc2)sc1C(=O)NCC(F)(Cl)Cl [Compound 96] | ≥ 70% |  | 
1.42 | Cc1nc(-c2cccnc2)sc1C(=O)NC(C)CF (stereo not shown) [Compound 97] | ≥ 70% |  | 
1.45 | Cc1cc(CNC(=O)c2sc(-c3cccnc3)nc2C)no1 [Compound 98] | ≥ 70% |  | 
2.17 | Cc1nc(-c2cccnc2)sc1C(=O)NCC(Cl)(Cl)Cl [Compound 100] | ≥ 70% |  | 
1.33 | COC(CNC(=O)c1sc(-c2cccnc2)nc1C)OC [Compound 101] | ≥ 70% |  | 

chromatographic logP [1, 3] | Compound | pest or weed control at 500 g/ha [2, 4] | chromatographic logP ([1]; HPLC) | pest or weed control at 500 g/ha ([2]; in Brassica rapa)
1.3 | CN(Cc1ncccn1)C(=O)c1cnc(-c2cccnc2)s1 [Compound 102] | ≥ 70% |  | 
1.64 | Cc1nc(-c2cccnc2)sc1C(=O)NCC1CCCCO1 (stereo not shown) [Compound 104] | ≥ 70% |  | 
0.61 | O=C(NCc1ccccn1)c1cnc(-c2cccnc2)s1 [Compound 106] | ≥ 70% |  | 
1.03 | Cc1nccc(CNC(=O)c2sc(-c3cccnc3)nc2C)n1 [Compound 107] | ≥ 70% |  | 
1.78 | CCOC(CNC(=O)c1sc(-c2cccnc2)nc1C)OCC [Compound 108] | ≥ 70% |  | 
1.22 | Cc1nc(-c2cccnc2)sc1C(=O)NC1CCS(=O)(=O)C1 (stereo not shown) [Compound 110] | ≥ 70% |  | 
1.45 | Cc1nc(-c2cccnc2)sc1C(=O)N(C)C(C)c1ccccn1 (stereo not shown) [Compound 111] | ≥ 70% |  | 
1.71 | COCN(Cc1cc(C)on1)C(=O)c1sc(-c2cccnc2)nc1C [Compound 119] | ≥ 70% |  | 
1.98 | Cc1nc(-c2cccnc2)sc1C(=O)NCC(F)(F)Br [Compound 121] | ≥ 70% |  | 
2.42 | Cc1nc(-c2cccnc2)sc1C(=O)NC1CCC(C(F)(F)F)CC1 (stereo not shown) [Compound 123] | ≥ 70% |  | 
2.11 | Cc1nc(-c2cccnc2)sc1C(=O)N(CCCF)CC(F)(F)F [Compound 124] | ≥ 70% |  | 
1.69 | Cc1nc(-c2cccnc2)sc1C(=O)NCC(C)Cl (stereo not shown) [Compound 125] | ≥ 70% |  | 
0.98 | CN(Cc1cccnc1)C(=O)c1cnc(-c2cccnc2)s1 [Compound 127] | ≥ 70% |  | 
0.75 | Cc1nc(-c2cccnc2)sc1C(=O)NNc1ncccn1 [Compound 128] | ≥ 70% |  | 
1.23 | COC1(NC(=O)c2sc(-c3cccnc3)nc2C)CC1 [Compound 129] | ≥ 70% |  | 
1.38 | Cc1nc(-c2cccnc2)sc1C(=O)NCc1nccs1 [Compound 130] | ≥ 70% |  | 
1.51 | Cc1nc(-c2cccnc2)sc1C(=O)NCC1OCC(CCl)O1 (stereo not shown) [Compound 132] | ≥ 70% |  | 

More lines, now with the values behind:

Compound | chromatographic logP [1, 3] | pest or weed control at 500 g/ha [2, 4] | chromatographic logP ([1]; HPLC) | pest or weed control at 500 g/ha ([2]; in Brassica rapa)
COC1(NC(=O)c2cnc(-c3cccnc3)s2)CC1 [Compound 70] | 1.14 | ≥ 70% |  | 
NC(=O)c1cnc(-c2cccnc2)s1 [Compound 72] | 0.29 | ≥ 70% |  | 
CSCC(C)(C)NC(=O)c1sc(-c2cccnc2)nc1C [Compound 73] | 2.05 | ≥ 70% |  | 
N#CCNC(=O)c1cnc(-c2cccnc2)s1 [Compound 79] | 0.88 | ≥ 70% |  | 
O=C(NCc1ccncn1)c1cnc(-c2cccnc2)s1 [Compound 81] | 0.73 | ≥ 70% |  | 
Cc1nc(-c2cccnc2)sc1C(=O)N[C@@H]1C[C@@H]1F [Compound 83] | 1.16 | ≥ 70% |  | 
Cc1nc(-c2cccnc2)sc1C(=O)NC(C)CC(F)(F)F (stereo not shown) [Compound 86] | 1.94 | ≥ 70% |  | 
Cc1nc(-c2cccnc2)sc1C(=O)NC(C)c1ccccn1 (stereo not shown) [Compound 87] | 1.1 | ≥ 70% |  | 
CCOC1(NC(=O)c2cnc(-c3cccnc3)s2)CC1 [Compound 88] | 1.31 | ≥ 70% |  | 
Cc1nc(-c2cccnc2)sc1C(=O)NCc1ccccn1 [Compound 90] | 0.78 | ≥ 70% |  | 
Cc1nc(-c2cccnc2)sc1C(=O)N(C)Cc1ccccn1 [Compound 93] | 1.19 | ≥ 70% |  | 
Cc1nc(-c2cccnc2)sc1C(=O)NC(C)(C#N)C1CC1 (stereo not shown) [Compound 94] | 1.76 | ≥ 70% |  | 
COCN(Cc1ncccn1)C(=O)c1sc(-c2cccnc2)nc1C [Compound 99] | 1.28 | ≥ 70% |  | 
Cc1nc(-c2cccnc2)sc1C(=O)NCC1CCCO1 (stereo not shown) [Compound 103] | 1.4 | ≥ 70% |  | 
Cc1cc(CNC(=O)c2sc(-c3cccnc3)nc2C)n(C)n1 [Compound 105] | 1.23 | ≥ 70% |  | 
COCN(C(=O)c1sc(-c2cccnc2)nc1C)C(C)C(=O)OC (stereo not shown) [Compound 109] | 1.61 | ≥ 70% |  | 
O=C(NCc1ncccn1)c1cnc(-c2cccnc2)s1 [Compound 112] | 0.81 | ≥ 70% |  | 
COCN(CCF)C(=O)c1sc(-c2cccnc2)nc1C [Compound 113] | 1.46 | ≥ 70% |  | 
Cc1nc(-c2cccnc2)sc1C(=O)NC(C)(C)CS(C)(=O)=O [Compound 114] | 1.28 | ≥ 70% |  | 
Cc1nc(-c2cccnc2)sc1C(=O)NCc1ccc(Cl)nc1 [Compound 115] | 1.71 | ≥ 70% |  | 
COC(=O)N(CC(F)(F)F)C(=O)c1sc(-c2cccnc2)nc1C [Compound 116] |  |  | 2.46 | ≥ 70%
C#CCOC(=O)N(CC(F)(F)F)C(=O)c1sc(-c2cccnc2)nc1C [Compound 117] |  |  | 2.63 | ≥ 70%
O=C(N[C@H]1C[C@@H]1F)c1cnc(-c2cccnc2)s1 [Compound 118] | 1.14 | ≥ 70% |  | 
CCOC(=O)NC(C)(C)CNC(=O)c1sc(-c2cccnc2)nc1C [Compound 120] |  |  | 1.75 | ≥ 70%
C=CC[n+]1cccc(-c2nc(C)c(C(=O)NCC(F)(F)F)s2)c1 [Compound 122] | 1.13 | ≥ 70% |  | 
Cc1nc(-c2cccnc2)sc1C(=O)NCc1ccncn1 [Compound 126] | 0.9 | ≥ 70% |  | 
Cc1nc(-c2cccnc2)sc1C(=O)N(Cc1ccco1)CC(F)(F)F [Compound 131] | 2.56 | ≥ 70% |  | 
